For this series, the target named is T1, human SSAO T2 (Met211-Asn763), untagged (Homo sapiens, UniProt Q16853).
T1 construct: T2 (Met211-Asn763) Representing the Putative Catalytic Domain; expressed in transfected cells; cell lysate
T1 sequence (Q16853 211-763): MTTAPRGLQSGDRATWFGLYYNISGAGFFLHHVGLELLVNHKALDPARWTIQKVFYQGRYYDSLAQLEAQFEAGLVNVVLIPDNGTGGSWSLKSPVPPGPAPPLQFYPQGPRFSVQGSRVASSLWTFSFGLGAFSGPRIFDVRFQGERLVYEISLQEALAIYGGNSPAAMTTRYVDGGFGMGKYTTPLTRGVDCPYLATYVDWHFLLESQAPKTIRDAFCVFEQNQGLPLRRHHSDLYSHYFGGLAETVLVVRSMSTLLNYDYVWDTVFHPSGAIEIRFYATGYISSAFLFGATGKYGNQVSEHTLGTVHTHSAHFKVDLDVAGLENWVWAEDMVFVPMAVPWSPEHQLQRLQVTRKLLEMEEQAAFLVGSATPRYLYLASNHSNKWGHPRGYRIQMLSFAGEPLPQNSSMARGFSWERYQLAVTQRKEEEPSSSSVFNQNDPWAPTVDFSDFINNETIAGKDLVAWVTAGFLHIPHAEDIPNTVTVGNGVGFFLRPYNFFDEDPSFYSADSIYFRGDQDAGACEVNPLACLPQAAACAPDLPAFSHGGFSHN
The experiment in a line: Benzylamine stability in lysate of cells expressing T2 SSAO (untagged), LC/MS/MS. In kind it is in vitro ADME. Particulars: tag None. How it is done: 4) T2 (Met211-Asn763) Representing the Putative Catalytic Domain.
The expression constructs were prepared by cloning these PCR products into the pCDNA5-FRT-To-DEST vector (Invitrogen, Gateway System™). The forward and reverse DNA sequence of each construct was confirmed including expressed sequences and at least 100 base pairs either side of this. Stable cell lines for Flp-In CHO, Flp-In CHO T-Rex, and Flp-In HEK 293 (Invitrogen, Flp-In system™) were generated using these 6 constructs according to manufacturer's instructions. Cells were co-transfected with the regulatory vector, pOG44, and each of the pCDNA5-FRT-To-DEST constructs using Lipfectamine (Invitrogen) according to manufacturer's instructions. Thus, 18 cell lines were generated: CHO Flp-In full-length SSAO; CHO Flp-In full-length SSAO with C-terminal 6×HIS tag; CHO Flp-In T1 SSAO; CHO Flp-In T1 SSAO with C-terminal 6×HIS tag; CHO Flp-In T2 SSAO; CHO Flp-In T2 SSAO with C-terminal 6×HIS tag; CHO T-Rex Flp-In full-length SSAO; CHO T-Rex Flp-In full-length SSAO with C-terminal 6×HIS tag; CHO T-Rex Flp-In T1 SSAO; CHO T-Rex Flp-In T1 SSAO with C-terminal 6×HIS tag; CHO T-Rex Flp-In T2 SSAO; CHO Flp-In T2 SSAO with C-terminal 6×HIS tag; HEK 293 Flp-In full-length SSAO; HEK 293 Flp-In full-length SSAO with C-terminal 6×HIS tag; HEK 293 Flp-In T1 SSAO; HEK 293 Flp-In T1 SSAO with C-terminal 6×HIS tag; HEK 293 Flp-In T2 SSAO; HEK 293 Flp-In T2 SSAO with C-terminal 6×HIS tag.
Adherent CHO cells were cultured at 37° C., 5% CO2 in media containing Ham's F12, 10% fetal bovine serum, 2 mM L-glutamine, 1% Penicillin/Streptomycin, 300 μM hygromycin B. Adherent HEK 293 cells were cultured at 37° C., 5% CO2 in D-MEM (high glucose), 10% fetal bovine serum, 2 mM L-glutamine, and 200 μM hygromycin B. Stable transformants were identified by loss of zeocin resistance. Once the cells were 80% confluent, SSAO expression was induced by the addition of Tetracycline to 1 μg/mL. Following 18 hours, the cells were harvested using a trypsin treatment of 3 minutes, at room temperature. Cells were washed 3 times in phosphate buffered saline before flash freezing in liquid nitrogen.
For the preparation of cell lysate for activity testing, frozen cell pellets were resuspended in lysate buffer containing 10 mM Tris-HCl (pH 7.2), 150 mM NaCl, 1.5 mM MgCl2, 1% v/v NP-40 and incubated for 15 minutes on ice. Lysate was cleared by centrifugation 800×g for 10 minutes, 4° C. and stored in aliquots at −80° C. until use. Proteins were determined using Pierce Coomassie Protein Reagent, according to manufacturer's instructions.
For each assay run, 1 mL of cell lysate (1.5 mg/mL protein) was mixed with benzylamine to 2000 ng/mL final concentration. At each corresponding time point, […] the incubation mixture was transferred to a microcentrifuge tube (1.7 mL) and mixed with 50 μL of acetonitrile. The tubes were vortex mixed briefly to ensure complete mixing and then centrifuged at 10,000×g for 5 minutes. The supernatant was removed and 50 μL was transferred to an autosampler vial and mixed with 50 μL of water before LC/MS/MS analysis. Benzylamine remaining in the lysate was analyzed with LC/MS/MS method.
LC/MS/MS analysis was performed with a PE Sciex API 3000 mass spectrometer under the following conditions listed below and in Tables 1 and 2: […]

Take `NCc1ccccc1` [Benzylamine]: the “Benzylamine Remaining (%)” value by setting is: (CHO Flp-In T-Rex lysate, 0 min) 100%; (CHO Flp-In T-Rex lysate, 10 min) 97%; (CHO Flp-In T-Rex lysate, 2 h) 83%; (CHO Flp-In lysate, 0 min) 100%; (CHO Flp-In lysate, 10 min) 105%; (CHO Flp-In lysate, 2 h) 98%. The “Benzylamine Remaining (%)” value was determined as 100% (HEK293 lysate, 0 min); 113% (HEK293 lysate, 10 min); 101% (HEK293 lysate, 2 h).

The values above are taken from US8883410B2, “Method for determining the stability of organic methyleneamines in the presence of semicarbazide-sensitive amine oxidase” (Sanofi, priority 2007, dated 2014).
